Source: PubChem BioAssay (NCI)
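Here, GI50 denotes the concentration required for 50% inhibition of growth. TGI: total growth inhibition.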

Assays:
Test in all cases: NCI tumour cell line growth inhibition, 384-well format; in the data active = GI50 below about 0.43 µM; inactive = the rest
A549 NSCLC = test system: A549 NSCLC
ACHN renal = test system: ACHN renal
NCI-H226 lung = test system: NCI-H226 lung
UACC-62 melanoma = test system: UACC-62 melanoma
NCI-H322M lung = test system: NCI-H322M lung
BT-549 breast = test system: BT-549 breast
MDA-MB-468 breast = test system: MDA-MB-468 breast
IGROV1 ovarian = test system: IGROV1 ovarian
KM12 colon = test system: KM12 colon
MCF7 breast = test system: MCF7 breast
SK-MEL-5 melanoma = test system: SK-MEL-5 melanoma
RXF 393 renal = test system: RXF 393 renal
PC-3 prostate = test system: PC-3 prostate
RPMI-8226 leukemia = test system: RPMI-8226 leukemia
MDA-MB-435 melanoma = test system: MDA-MB-435 melanoma
TK-10 renal = test system: TK-10 renal
SR leukemia = test system: SR leukemia
OVCAR-8 ovarian = test system: OVCAR-8 ovarian
OVCAR-3 ovarian = test system: OVCAR-3 ovarian
HL-60(TB) leukemia = test system: HL-60(TB) leukemia
U251 glioblastoma = test system: U251 glioblastoma
SK-MEL-28 melanoma = test system: SK-MEL-28 melanoma
SF-539 CNS = test system: SF-539 CNS
CCRF-CEM leukemia = test system: CCRF-CEM leukemia
MALME-3M melanoma = test system: MALME-3M melanoma
CAKI-1 renal = test system: CAKI-1 renal
SF-268 CNS = test system: SF-268 CNS
T-47D breast = test system: T-47D breast
HCC-2998 colon = test system: HCC-2998 colon
OVCAR-4 ovarian = test system: OVCAR-4 ovarian
NCI/ADR-RES ovarian = test system: NCI/ADR-RES ovarian
COLO 205 colon = test system: COLO 205 colon
HOP-62 NSCLC = test system: HOP-62 NSCLC
HCT-116 colon = test system: HCT-116 colon
SK-OV-3 ovarian = test system: SK-OV-3 ovarian
SN12C renal = test system: SN12C renal
OVCAR-5 ovarian = test system: OVCAR-5 ovarian
NCI-H23 lung = test system: NCI-H23 lung
786-0 renal = test system: 786-0 renal
UO-31 renal = test system: UO-31 renal
K-562 leukemia = test system: K-562 leukemia
LOX IMVI melanoma = test system: LOX IMVI melanoma
DU-145 prostate = test system: DU-145 prostate
SK-MEL-2 melanoma = test system: SK-MEL-2 melanoma
SNB-19 CNS = test system: SNB-19 CNS
HT29 colon = test system: HT29 colon
HCT-15 colon = test system: HCT-15 colon
MOLT-4 leukemia = test system: MOLT-4 leukemia
SW-620 colon = test system: SW-620 colon
A498 renal = test system: A498 renal
HOP-92 NSCLC = test system: HOP-92 NSCLC
SF-295 CNS = test system: SF-295 CNS
MDA-MB-231 breast = test system: MDA-MB-231 breast
M14 melanoma = test system: M14 melanoma
UACC-257 melanoma = test system: UACC-257 melanoma
NCI-H460 NSCLC = test system: NCI-H460 NSCLC

CCCC[C@@H](COC(=O)N(Cc1cccs1)Cc1cccs1)NC(=O)N[C@@H](CC(=O)OC)c1ccc2c(c1)OCO2
> 100 µM: TGI (A549 NSCLC) | TGI (ACHN renal) | TGI (NCI-H226 lung) | TGI (UACC-62 melanoma) | TGI (NCI-H322M lung) | TGI (BT-549 breast) | TGI (MDA-MB-468 breast) | TGI (IGROV1 ovarian) | TGI (KM12 colon) | TGI (MCF7 breast) | TGI (SK-MEL-5 melanoma) | TGI (RXF 393 renal) | TGI (PC-3 prostate) | TGI (MDA-MB-435 melanoma) | TGI (TK-10 renal) | TGI (SR leukemia) | TGI (OVCAR-8 ovarian) | TGI (OVCAR-3 ovarian) | TGI (HL-60(TB) leukemia) | TGI (U251 glioblastoma) | TGI (SK-MEL-28 melanoma) | TGI (SF-539 CNS) | TGI (CCRF-CEM leukemia) | TGI (MALME-3M melanoma) | TGI (CAKI-1 renal) | TGI (SF-268 CNS) | TGI (T-47D breast) | TGI (HCC-2998 colon) | TGI (OVCAR-4 ovarian) | TGI (NCI/ADR-RES ovarian) | TGI (COLO 205 colon) | TGI (HOP-62 NSCLC) | TGI (HCT-116 colon) | TGI (SK-OV-3 ovarian) | TGI (SN12C renal) | TGI (OVCAR-5 ovarian) | TGI (NCI-H23 lung) | TGI (786-0 renal) | TGI (UO-31 renal) | TGI (K-562 leukemia) | TGI (LOX IMVI melanoma) | TGI (DU-145 prostate) | TGI (SK-MEL-2 melanoma) | TGI (SNB-19 CNS) | TGI (HT29 colon) | TGI (HCT-15 colon) | TGI (SW-620 colon) | TGI (A498 renal) | TGI (HOP-92 NSCLC) | TGI (SF-295 CNS) | TGI (MDA-MB-231 breast) | TGI (M14 melanoma) | TGI (UACC-257 melanoma) | TGI (NCI-H460 NSCLC)
4.54 µM: TGI (MOLT-4 leukemia)
6.14 µM: TGI (RPMI-8226 leukemia)
inactive: GI50 (A549 NSCLC) > 100 µM | GI50 (ACHN renal) > 100 µM | GI50 (NCI-H226 lung) > 100 µM | GI50 (UACC-62 melanoma) 65 µM | GI50 (NCI-H322M lung) > 100 µM | GI50 (BT-549 breast) > 100 µM | GI50 (MDA-MB-468 breast) > 100 µM | GI50 (IGROV1 ovarian) > 100 µM | GI50 (KM12 colon) > 100 µM | GI50 (MCF7 breast) > 100 µM | GI50 (SK-MEL-5 melanoma) 83 µM | GI50 (RXF 393 renal) 5.08 µM | GI50 (PC-3 prostate) > 100 µM | GI50 (RPMI-8226 leukemia) 2.87 µM | GI50 (MDA-MB-435 melanoma) > 100 µM | GI50 (TK-10 renal) > 100 µM | GI50 (SR leukemia) 6.03 µM | GI50 (OVCAR-8 ovarian) > 100 µM | GI50 (OVCAR-3 ovarian) > 100 µM | GI50 (HL-60(TB) leukemia) 14.6 µM | GI50 (U251 glioblastoma) > 100 µM | GI50 (SK-MEL-28 melanoma) > 100 µM | GI50 (SF-539 CNS) > 100 µM | GI50 (CCRF-CEM leukemia) > 100 µM | GI50 (MALME-3M melanoma) > 100 µM | GI50 (CAKI-1 renal) > 100 µM | GI50 (SF-268 CNS) > 100 µM | GI50 (T-47D breast) 50.5 µM | GI50 (HCC-2998 colon) > 100 µM | GI50 (OVCAR-4 ovarian) > 100 µM | GI50 (NCI/ADR-RES ovarian) 55.5 µM | GI50 (COLO 205 colon) > 100 µM | GI50 (HOP-62 NSCLC) > 100 µM | GI50 (HCT-116 colon) 7.28 µM | GI50 (SK-OV-3 ovarian) > 100 µM | GI50 (SN12C renal) > 100 µM | GI50 (OVCAR-5 ovarian) > 100 µM | GI50 (NCI-H23 lung) 90.7 µM | GI50 ([…]-0 renal) > 100 µM | GI50 (UO-31 renal) 53.2 µM | GI50 (K-562 leukemia) > 100 µM | GI50 (LOX IMVI melanoma) > 100 µM | GI50 (DU-145 prostate) > 100 µM | GI50 (SK-MEL-2 melanoma) > 100 µM | GI50 (SNB-19 CNS) > 100 µM | GI50 (HT29 colon) > 100 µM | GI50 (HCT-15 colon) > 100 µM | GI50 (MOLT-4 leukemia) 2.28 µM | GI50 (SW-620 colon) > 100 µM | GI50 (A498 renal) > 100 µM | GI50 (HOP-92 NSCLC) > 100 µM | GI50 (SF-295 CNS) > 100 µM | GI50 (MDA-MB-231 breast) > 100 µM | GI50 (M14 melanoma) > 100 µM | GI50 (UACC-257 melanoma) > 100 µM | GI50 (NCI-H460 NSCLC) > 100 µM
